Measurements: patent US9371304B2, “Compound separated from monascus-fermented rice,the preparation method and uses thereof” (Beijing Peking University WBL Biotech Co. Ltd, priority 2011, dated 2016)

Target: T1, HMG-CoA reductase (microsomes of rat liver) (Rattus norvegicus, UniProt P51639)
T1 construct: from tissue; host or cells: rat liver microsomes
T1 sequence (P51639 1-887): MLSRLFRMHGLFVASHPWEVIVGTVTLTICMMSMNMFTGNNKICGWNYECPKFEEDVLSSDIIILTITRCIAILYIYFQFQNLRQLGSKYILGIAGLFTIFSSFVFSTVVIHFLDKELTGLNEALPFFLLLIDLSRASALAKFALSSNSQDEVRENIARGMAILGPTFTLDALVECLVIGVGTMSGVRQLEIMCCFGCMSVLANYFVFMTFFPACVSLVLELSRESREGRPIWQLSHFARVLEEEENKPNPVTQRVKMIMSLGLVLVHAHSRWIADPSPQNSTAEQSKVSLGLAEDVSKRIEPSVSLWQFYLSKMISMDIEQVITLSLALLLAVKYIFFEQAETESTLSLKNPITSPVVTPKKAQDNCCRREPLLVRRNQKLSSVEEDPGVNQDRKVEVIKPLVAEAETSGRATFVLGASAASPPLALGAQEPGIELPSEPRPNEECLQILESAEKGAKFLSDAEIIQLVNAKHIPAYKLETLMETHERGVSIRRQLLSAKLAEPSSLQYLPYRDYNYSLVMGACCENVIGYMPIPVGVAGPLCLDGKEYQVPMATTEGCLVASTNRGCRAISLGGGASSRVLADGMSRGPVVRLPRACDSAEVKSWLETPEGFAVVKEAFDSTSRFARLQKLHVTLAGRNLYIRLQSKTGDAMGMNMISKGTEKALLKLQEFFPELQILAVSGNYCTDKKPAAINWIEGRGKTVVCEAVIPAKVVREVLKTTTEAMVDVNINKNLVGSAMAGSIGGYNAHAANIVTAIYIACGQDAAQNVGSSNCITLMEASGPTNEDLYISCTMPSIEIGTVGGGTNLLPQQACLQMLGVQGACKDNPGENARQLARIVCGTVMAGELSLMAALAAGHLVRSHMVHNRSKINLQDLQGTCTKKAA
Assay: Test of inhibiting activity of HMG-CoA reductase (rate of decline of OD340)
Type: biochemical
Conditions: for Slope (rate of decline of OD340 within 5 min): blank control slope 9.971
Protocol: 1. Experimental Materials
The compound of Formula II prepared according to Example 1.
monacolin L (purchased or prepared according to the method of the contents of the present invention)
Standard Sample of Lovastatin (Purchased from Sigma)
Microsomes of rat liver (HMG-CoA reductase) were purchased, or prepared according to the following method: liver of a male rat was taken out, washed with KESD buffering solution, then centrifuged at 1,200 g for 15 min, the supernatant was taken out, and then centrifuged at 105,000 g for 90 min twice, and a centrifugation precipitate was collected. The centrifugation precipitate was added with 8.3% glycerol, heated with 37° C. bath for 1 h. The microsomes of rat liver were purified with saturated ammonium sulfate and the 33-50% purified fraction was collected. The obtained microsomes of rat liver were stored in refrigerator at −80° C.
Potassium chloride, potassium dihydrogen phosphate, ethylene diamine tetraacetic acid, dithiothreitol (all purchased from Beijing Chemical Reagent Co., Ltd.)
[…] (purchased from Merck) 3-hydroxy-3-methylglutaryl coenzyme A (HMG-CoA) and cremophore EL (purchased from Sigma).
The compound as prepared according to Example 1 was dissolved with 50% cremophore EL ethanol solution, and the concentration was 2 mg/mL; the total volume of the system was determined and it was 250 μL, and the concentration of each component was: potassium chloride 200 mM, potassium dihydrogen phosphate 160 mM, ethylene diamine tetraacetic acid 4 mM, dithiothreitol 10 mM, concentrations of two substrates, nicotinamide adenine dinucleotide and 3-hydroxy-3-methylglutaryl coenzyme A, 200 μM and 50 μM separately, pH6.8, addition of enzyme 30 μL, enzyme inhibitor 5 μL, blank control group 5 μL (solvent for dissolving sample). The dynamic change of OD340 was detected with Versamax ELIASA at 37° C. The rate of decline (represented with slope value) of OD340 within 5 min was used to evaluate the activity of HMG-CoA reductase, and then to evaluate the activity of enzyme inhibitor.

CC1C=C2C=CC(C)C(CCC3CC=CC(=O)O3)C2CC1 (stereo not shown) [6-(2-(2,6-dimethyl-1,2,6,7,8,8a-hexahydronaphthalen-1-yl)ethyl)-5,6-dihydropyran-2-one]
activity for inhibiting HMG-CoA reductase (in words) (conclusion drawn from Table 2): effective activity
Slope (rate of decline of OD340 within 5 min) (final concentration 40 μg/mL, 37° C., pH6.8): 7.344
inhibition at 40 µg/mL (pH 6.8, final concentration 40 μg/mL, 37° C., pH6.8): 26.3%

CC[C@H](C)C(=O)O[C@H]1C[C@@H](C)C=C2C=C[C@H](C)[C@H](CC[C@@H]3C[C@@H](O)CC(=O)O3)[C@H]21 [Lovastatin]
Slope (rate of decline of OD340 within 5 min) (final concentration 34 μg/mL, 37° C., pH6.8): 6.022
inhibition at 34 µg/mL (pH 6.8, final concentration 34 μg/mL, 37° C., pH6.8): 39.6%

CC1C=C2C=CC(C)C(CCC3CC(O)CC(=O)O3)C2CC1 (stereo not shown) [monacolin L]
Slope (rate of decline of OD340 within 5 min) (final concentration 30 μg/mL, 37° C., pH6.8): 7.279
inhibition at 30 µg/mL (pH 6.8, final concentration 30 μg/mL, 37° C., pH6.8): 27%
